Experimental data from patent US12102685B2, “Immodulator peptides covalently modified with small molecules” (priority 2020, dated 2024).
Peptide text beside a SMILES is read from it.

What was measured:
[1] = Alexa488-SA-labelled IM3 binding to metal-charged NTA-coated plate (x2B c)
Description: NTA-metal-affinity fluorescence assay was performed using 96-well NTA-metal-coated plates readily available from commercial sources such as Qiagen (Germantown, MD). NTA was charged with ferrous or ferric iron, zinc, copper, calcium, vanadium, ruthenium, cobalt, titanium, manganese or other metals. 400 ng of FITC-labeled immodulator peptide (or biotinylated immodulator peptide complexed to Alexa-488-labeled streptavidin) in PBS buffer was added per plate. After incubation at room temperature for 60 minutes, excess peptide was washed off and peptide was detected by measuring fluorescence (excitation 490 nm, emmission 525 nm) in a fluorometer. • (a) Using FITC-labeled IM3 peptide (1 ug/well) in the fluorescent binding assay: • EDTA-treated control: 2,251±1,186 • Ferrous iron: 170,441±11,264 (p<0.001)* • Copper: 13,644±5566 (p<0.05)* • Calcium: 48,822±11,990 (p<0.01)* • *p values are relative to EDTA-treated control • (b) Competition binding assay to ferrous iron, calcium, copper and zinc-charged NTA-coated plates using FITC-labeled IM3 peptide (0.5 uM) and 8× (4 uM) unlabelled competitor peptides IM3N1, IM3N2 (*all comparisons to PBS control are p<0.01); # fluorescent value of binding to […] was set at 100.
• (c) Alexa488-SA-labelled immodulator peptide IM3 (400 ng/well) bound to NTA-coated plate charged with the indicated metals: # fluorescent value of binding to ferrous iron was set at 100. *p<0.01 relative to control.
Ferrous iron # (100±2.6*); Control (no metal): 6.4±3.1; Ferric iron: 94.1±6.6*; Calcium: 47.6±3.7*; Vanadium: 53.9±5.5*; Manganese: 54.4±11.2*; Cobalt: 25.4±2.3*; Copper: 58.4±6.4*; Zinc: 71.4±8.3*; Ruthenium: 67.8±8.3*; (d) Alexa488-SA-labelled immodulator peptide IM1, IM2, IM3, IM4, IM5, IM6 (400 ng/well) were bound to NTA-coated plate charged with the indicated metals: # background (no peptide) control set to 1.0;*p<0.05, **p<0.01 vs “no peptide”

[2] = tested on: genes associated with oxidative stress in dorsal root ganglia; experiment: qRT-PCR of dorsal root ganglia 14 days after burn; format: in vivo, Sprague Dawley rats; details: DRG 14 days after burn, sham = 1
Description: Survivors of severe burns suffer lifetime neuroinflammatory consequences manifested by higher incidence of major depression and neurodegenerative disease. […] Nephrilin's mechanism of action appears to involve protection from excessive oxidative stress. Using quantitative reverse transcriptase polymerase chain reaction (qRT-PCR) amplification of transcripts in total RNA extracted from dorsal root ganglia (DRG) of male rats 14 days after exposure to thermal insult, we query the relative levels of expression of 34 genes believed to be associated with oxidative stress biology in the CNS. […] This subset analysis of DRG from a previously published study (n=3 per group) is associated with the following effects in the study (Table x7A):
In this study, using quantitative reverse transcriptase polymerase chain reaction (qRT-PCR) amplification of transcripts in total RNA extracted from dorsal root ganglia of male rats 14 days after exposure to thermal insult, the relative levels of expression of 34 genes believed to be associated with oxidative stress biology in the CNS were queried, with an emphasis on astrogliosis, immunosuppression and mitochondrial homeostasis. The 34 genes studied were selected based on their known implication in the above processes, as described in the scientific literature. Dorsal root ganglia (DRG) were dissected from male adult Sprague Dawley rats (300 gm, Charles River Laboratories, Wilmington, MA, USA), three randomly selected animals in each treatment group were used (Group 1:sham; Group 2: burn+vehicle; Group 3: burn+IM3N1) and total RNA was extracted from each pool using the Rneasy Midi Kit (Qiagen, Germantown, MD). Yield was ˜30 ug RNA per pool and A260/A280 ratios were between 1.87-2.04 in all cases. The high quality of each RNA prep was further confirmed by electrophoresis (using Eukaryote Total RNA Nano). For quantitative reverse transcriptase polymerase chain reaction (qRT-PCR) RNAs were diluted in RNase/DNase free water and aliquoted into wells in triplicate. Approximately 100 ng of RNA was used per well. A one step qPCR method was performed using Luna Universal One-Step RT-qPCR kit (New England Biolabs, Ipswich, MA) containing reverse transcriptase enzyme mix. Primer pairs for each gene were synthesized for the SYBR assay. The following standard qPCR cycling conditions were used: 55C for 10′ (for RT), 95C for 1′ followed by 40 cycles at 95C for 10 s. 58C for 30 s. Background was set at 3-10 cycles and the threshold was set at 0.02 for all runs. Ct values were collected and analyzed using the “delta-delta Ct” method. Transcript data for each gene are shown relative to GAPDH, a house-keeping gene. Sham group value was set to 1. Gene groups: [A] astrocyte activation; [B] MDSC-mediated immunosuppression; [C] Mitochondrial homeostasis; [D] Downstream effects of oxidative stress;

Question: With `N=C(N)NCCC[C@H](NC(=O)CNC(=O)[C@H](CCCCN)NC(=O)[C@H](CO)NC(=O)[C@@H]1CCCN1C(=O)[C@H](CCCNC(=N)N)NC(=O)[C@H](CS)NC(=O)[C@H](CCC(N)=O)NC(=O)[C@H](CCCCN)NC(=O)[C@H](CCCCN)NC(=O)[C@H](CCCCN)NC(=O)[C@H](Cc1ccc(O)cc1)NC(=O)[C@H](Cc1ccccc1)NC(=O)CNC(=O)[C@H](CCCCN)NC(=O)[C@@H](N)CCCCN)C(=O)N[C@@H](CCCCN)C(=O)N[C@@H](CCCNC(=N)N)C(=O)NCC(=O)N[C@@H](Cc1ccccc1)C(=O)N[C@@H](CS)C(=O)N[C@@H](Cc1c[nH]c2ccccc12)C(=O)O` [IM3] (H-KKGFYKKKQCRPSKGRKRGFCW-OH; N-terminus and C-terminus assumed) as the compound, how does the fluorescence ([1]; Calcium, ferrous iron = 100) read?
Answer: 47.6±3.7

Question: And the fluorescence ([1]; Cobalt, ferrous iron = 100)?
Answer: 25.4±2.3

Question: And the fluorescence ([1]; Control (no metal), ferrous iron = 100)?
Answer: 6.4±3.1

Question: And the fluorescence ([1]; Copper, ferrous iron = 100)?
Answer: 58.4±6.4

Question: What about the fluorescence ([1]; Ferric iron, ferrous iron = 100) of the same compound?
Answer: 94.1±6.6

Question: And the fluorescence ([1]; Ferrous iron, set at 100, 400 ng/well)?
Answer: 100±2.6

Question: What about the fluorescence ([1]; Manganese, ferrous iron = 100) of the same compound?
Answer: 54.4±11.2

Question: And the fluorescence ([1]; Ruthenium, ferrous iron = 100)?
Answer: 67.8±8.3

Question: What about the fluorescence ([1]; Vanadium, ferrous iron = 100) of the same compound?
Answer: 53.9±5.5

Question: And the fluorescence ([1]; Zinc, ferrous iron = 100)?
Answer: 71.4±8.3

Question: For “RGVTEDYLRLETLVQKVVSKGFYKKKQCRPSKGRKRGFCW [IM3N1]”, which “GFAP transcript relative to GAPDH” value ([2]; [A] astrocyte activation, IM3N1 4 mg/kg sc 7 days) is on record?
Answer: 2.40

Question: And the “AQP4 transcript relative to GAPDH” value ([2]; [A])?
Answer: 0.59

Question: And the “CTGF transcript relative to GAPDH” value ([2]; [A])?
Answer: 1.61

Question: What about the “GALANIN transcript relative to GAPDH” value ([2]; [A]) of the same compound?
Answer: 18.50

Question: And the “NPY transcript relative to GAPDH” value ([2]; [A])?
Answer: 29.50

Question: What about the “Pi16 transcript relative to GAPDH” value ([2]; [A]) of the same compound?
Answer: 2.40

Question: And the “S100A9 transcript relative to GAPDH” value ([2]; [A])?
Answer: 5.01

Question: What about the “SLC7A11 transcript relative to GAPDH” value ([2]; [B] MDSC-mediated immunosuppression) of the same compound?
Answer: 4.78

Question: And the “ARG1 transcript relative to GAPDH” value ([2]; [B])?
Answer: 3.09

Question: What about the “CCL2 transcript relative to GAPDH” value ([2]; [B]) of the same compound?
Answer: 3.17

Question: And the “CD63 transcript relative to GAPDH” value ([2]; [B])?
Answer: 1.88

Question: And the “NRF2 transcript relative to GAPDH” value ([2]; [B])?
Answer: 1.29

Question: What about the “TFAM transcript relative to GAPDH” value ([2]; [C] Mitochondrial homeostasis) of the same compound?
Answer: 1.14

Question: What about the “ACMSD transcript relative to GAPDH” value ([2]; [C]) of the same compound?
Answer: 0.97

Question: What about the “BOK transcript relative to GAPDH” value ([2]; [C]) of the same compound?
Answer: 1.10

Question: What about the “FIS1 transcript relative to GAPDH” value ([2]; [C]) of the same compound?
Answer: 0.90

Question: And the “GLUL transcript relative to GAPDH” value ([2]; [C])?
Answer: 1.53

Question: What about the “HCRTR1 transcript relative to GAPDH” value ([2]; [C]) of the same compound?
Answer: 1.42

Question: And the “MFN2 transcript relative to GAPDH” value ([2]; [C])?
Answer: 1.48

Question: What about the “NOX2 transcript relative to GAPDH” value ([2]; [C]) of the same compound?
Answer: 2.07

Question: What about the “NOX4 transcript relative to GAPDH” value ([2]; [C]) of the same compound?
Answer: 6.57

Question: What about the “OXR1 transcript relative to GAPDH” value ([2]; [C]) of the same compound?
Answer: 1.04

Question: What about the “PINK1 transcript relative to GAPDH” value ([2]; [C]) of the same compound?
Answer: 1.35

Question: What about the “PPARGC1A transcript relative to GAPDH” value ([2]; [C]) of the same compound?
Answer: 1.00

Question: What about the “RAC1 transcript relative to GAPDH” value ([2]; [C]) of the same compound?
Answer: 1.00

Question: What about the “SHC1 transcript relative to GAPDH” value ([2]; [C]) of the same compound?
Answer: 2.34

Question: And the “SLC23A2 transcript relative to GAPDH” value ([2]; [C])?
Answer: 1.47

Question: What about the “STEAP4 transcript relative to GAPDH” value ([2]; [C]) of the same compound?
Answer: 1.77

Question: And the “UCP2 transcript relative to GAPDH” value ([2]; [C])?
Answer: 1.22

Question: What about the “PLSCR1 transcript relative to GAPDH” value ([2]; [D] Downstream effects of oxidative stress) of the same compound?
Answer: 2.30

Question: And the “BACE1 transcript relative to GAPDH” value ([2]; [D])?
Answer: 1.42

Question: And the “SLC12A2 transcript relative to GAPDH” value ([2]; [D])?
Answer: 1.59

Question: What about the “SLC12A5 transcript relative to GAPDH” value ([2]; [D]) of the same compound?
Answer: 1.38
